IC50 data for 37 molecules are collected here from US9902696B2, “1,4-substituted piperidine derivatives” (Cephalon, Inc., priority 2015, dated 2018).

Where a name gives a salt, the structure may show the parent alone.

T1 sequence (P49327 whole entry): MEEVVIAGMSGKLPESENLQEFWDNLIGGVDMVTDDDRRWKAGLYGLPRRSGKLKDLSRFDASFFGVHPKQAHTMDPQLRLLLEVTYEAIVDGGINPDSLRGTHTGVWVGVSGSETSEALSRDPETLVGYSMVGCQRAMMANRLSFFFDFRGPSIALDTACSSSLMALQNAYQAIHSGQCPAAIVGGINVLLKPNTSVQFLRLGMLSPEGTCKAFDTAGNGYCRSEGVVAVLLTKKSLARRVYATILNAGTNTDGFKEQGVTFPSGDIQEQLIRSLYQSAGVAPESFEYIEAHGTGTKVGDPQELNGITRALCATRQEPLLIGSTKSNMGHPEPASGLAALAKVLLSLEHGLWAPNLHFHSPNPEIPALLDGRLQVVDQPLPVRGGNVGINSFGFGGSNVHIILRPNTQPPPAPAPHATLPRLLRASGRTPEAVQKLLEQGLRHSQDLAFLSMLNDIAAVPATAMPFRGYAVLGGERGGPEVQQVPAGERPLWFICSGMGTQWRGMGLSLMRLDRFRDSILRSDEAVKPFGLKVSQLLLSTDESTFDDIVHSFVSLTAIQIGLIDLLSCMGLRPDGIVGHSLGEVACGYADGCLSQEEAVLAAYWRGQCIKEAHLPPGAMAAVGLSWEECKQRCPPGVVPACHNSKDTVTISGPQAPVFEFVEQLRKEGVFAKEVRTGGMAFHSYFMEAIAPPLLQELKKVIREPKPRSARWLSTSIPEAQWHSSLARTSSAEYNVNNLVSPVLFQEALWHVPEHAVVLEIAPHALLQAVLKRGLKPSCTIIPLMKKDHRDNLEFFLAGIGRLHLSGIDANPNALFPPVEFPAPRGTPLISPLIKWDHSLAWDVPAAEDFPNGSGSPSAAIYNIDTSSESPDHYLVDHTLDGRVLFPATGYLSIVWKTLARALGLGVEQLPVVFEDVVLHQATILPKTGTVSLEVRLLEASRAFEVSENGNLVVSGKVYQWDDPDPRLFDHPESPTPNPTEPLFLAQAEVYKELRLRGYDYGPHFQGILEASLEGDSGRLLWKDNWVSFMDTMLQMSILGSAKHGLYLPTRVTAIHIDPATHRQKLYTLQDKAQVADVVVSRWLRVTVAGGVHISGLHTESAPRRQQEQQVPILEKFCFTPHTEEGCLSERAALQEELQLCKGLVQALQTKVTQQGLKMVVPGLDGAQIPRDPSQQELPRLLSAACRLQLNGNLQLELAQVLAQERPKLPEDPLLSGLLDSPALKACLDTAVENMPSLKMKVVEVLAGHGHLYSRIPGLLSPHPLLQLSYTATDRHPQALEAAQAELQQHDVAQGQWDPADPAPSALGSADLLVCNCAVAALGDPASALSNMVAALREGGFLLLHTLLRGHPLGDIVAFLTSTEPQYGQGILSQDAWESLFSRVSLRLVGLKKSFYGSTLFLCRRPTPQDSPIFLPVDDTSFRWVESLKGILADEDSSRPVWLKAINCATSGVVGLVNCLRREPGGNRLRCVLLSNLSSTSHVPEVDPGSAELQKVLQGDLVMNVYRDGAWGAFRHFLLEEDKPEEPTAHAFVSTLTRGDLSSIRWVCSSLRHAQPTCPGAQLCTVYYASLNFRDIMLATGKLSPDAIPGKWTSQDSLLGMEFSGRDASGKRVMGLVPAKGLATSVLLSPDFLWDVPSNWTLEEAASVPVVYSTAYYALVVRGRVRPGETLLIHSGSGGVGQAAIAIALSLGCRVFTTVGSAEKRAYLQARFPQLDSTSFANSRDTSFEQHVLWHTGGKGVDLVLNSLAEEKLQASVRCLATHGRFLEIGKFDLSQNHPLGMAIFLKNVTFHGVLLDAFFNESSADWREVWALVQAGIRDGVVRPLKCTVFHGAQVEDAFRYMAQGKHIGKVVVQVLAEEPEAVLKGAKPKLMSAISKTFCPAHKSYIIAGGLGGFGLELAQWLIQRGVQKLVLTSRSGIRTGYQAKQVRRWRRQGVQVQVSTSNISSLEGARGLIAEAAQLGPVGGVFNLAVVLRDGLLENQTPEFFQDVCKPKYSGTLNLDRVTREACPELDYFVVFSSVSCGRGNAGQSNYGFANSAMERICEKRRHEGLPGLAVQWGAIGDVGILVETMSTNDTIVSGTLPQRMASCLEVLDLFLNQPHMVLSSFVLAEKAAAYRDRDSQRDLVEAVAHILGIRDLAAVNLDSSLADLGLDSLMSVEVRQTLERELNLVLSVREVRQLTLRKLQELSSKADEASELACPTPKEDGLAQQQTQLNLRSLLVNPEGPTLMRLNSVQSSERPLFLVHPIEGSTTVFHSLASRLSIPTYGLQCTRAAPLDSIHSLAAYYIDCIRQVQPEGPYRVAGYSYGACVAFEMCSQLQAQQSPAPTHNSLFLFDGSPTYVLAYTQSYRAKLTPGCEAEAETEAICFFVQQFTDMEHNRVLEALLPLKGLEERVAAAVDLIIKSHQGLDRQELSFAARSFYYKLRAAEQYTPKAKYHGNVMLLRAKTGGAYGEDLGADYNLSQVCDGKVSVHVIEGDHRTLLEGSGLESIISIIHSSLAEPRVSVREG

The first test addresses T1, recombinant human baculovirus-expressed GST-tagged FASN (Homo sapiens, UniProt P49327).
T1 construct: GST
Kind of test: FASN enzyme activity assay, fluorescence-based detection of CoA with CPM. The test is classed as biochemical. Conditions: 5 nM FASN, 150 μM NADPH, 10 μM acetyl-CoA, 25 μM malonyl-CoA, 90 minutes incubation; read-out: IC50 data for Additional Compounds of Formulae I-V(a): Activity. Summed up:
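CoA product reacted with thiol-reactive CPM (diluted to 50 μM in 70% ethanol), read at 390/530 nm after 30 min. Preceding reaction: 90 min, 5 nM recombinant GST-FASN, 150 μM NADPH, 10 μM acetyl-CoA, 25 μM malonyl-CoA, pH 7.5 HEPES, 0.5% DMSO. IC50s fitted by nonlinear sigmoidal regression.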
Turning to `Cc1c(-c2ccc(OC3CCN(C(=O)NOCC(C)C)CC3)cc2)ccc2nccn12` [Example 601, N-Isobutoxy-4-[4-(5-methylimidazo[1,2-a]pyridin-6-yl)phenoxy]piperidine-1-carboxamide], the IC50 is 1 to 99 nM.
On the same count and under the same terms, the result for `CNC1(C(=O)N2CCC(Oc3ccc(-c4ccc5cccnc5c4C)cc3)CC2)CC1` [Example 622, [1-(Methylamino)cyclopropyl]-[4-[4-(8-methyl-7-quinolyl)phenoxy]-1-piperidyl]methanone] reads 1000 to 10000 nM; that for `Cc1c(-c2ccc(OC3CCN(C(=O)NC4CCC4)CC3)cc2)ccc2cccnc12` [Example 552, N-Cyclobutyl-4-[4-(8-methyl-7-quinolyl)phenoxy]piperidine-1-carboxamide HCl], 1000 to 10000 nM.
Still for that read-out and setting: as for `CCN1CCN(C(=O)N2CCC(Oc3ccc(-c4ccc5cccnc5c4C)cc3)CC2)CC1` [Example 535, (4-Ethyl lpiperazin-1-yl)-[4-[4-(8-methyl-7-quinolyl)phenoxy]-1-piperidyl]methanone tosylate], the figure is 1000 to 10000 nM; as for `Cc1c(-c2ccc(OC3CCN(C(=O)N(C)C)CC3)cc2)ccc2nccn12` [Example 599, N,N-Dimethyl-4-[4-(5-methylimidazo[1,2-a]pyridin-6-yl)phenoxy]piperidine-1-carboxamide], 1000 to 10000 nM.

The same test, now with this note: 5 nM FASN, 150 μM NADPH, 10 μM acetyl-CoA, 25 μM malonyl-CoA, 90 minutes incubation; read-out: IC50 data for Compounds of Formulae I-V/V(a): Activity.
Regarding `O=C([C@H]1CCCO1)N1CCC(Oc2ccc(-c3ccc4cccnc4c3Cl)cc2F)CC1` [Example 223, {4-[4-(8-Chloroquinolin-7-yl)-2-fluorophenoxy]-piperidin-1-yl}-(R)-tetrahydrofuran-2-yl-methanone], the IC50 lay within 1 to 99 nM.
Same read-out and setting: as for `N#Cc1cnc2cc(-c3ccc(OC4CCN(C(=O)C5CC5)CC4)cc3)ccc2c1` [Example 279, 7-[4-(1-Cyclopropanecarbonyl-piperidin-4-yloxy)-phenyl]-quinoline-3-carbonitrile], the figure is 100 to 999 nM; as for `CCC(=O)N1CCC(Oc2ccc(-c3ccc4cccnc4c3NCCN3CCCC3)cc2)CC1` [Example 335, 1-(4-{4-[8-(2-Pyrrolidin-1-yl-ethylamino)-quinolin-7-yl]-phenoxy}-piperidin-1-yl)-propan-1-one], 1000 to 10000 nM; as for `Cc1c(-c2ccc(OC3CCN(C(=O)C4CC4)CC3)c(F)c2)cnc2ccccc12` [Example 229, Cyclopropyl-{4-[2-fluoro-4-(4-methylquinolin-3-yl)-phenoxy]-piperidin-1-yl}-methanone], 100 to 999 nM.
Still for that read-out and setting: the result for `CCC(=O)N1CCC(Sc2ccc(-c3ccc4cnccc4c3)cc2)CC1` [Example 517, 1-(4-((4-(Isoquinolin-6-yl)phenyl)thio)piperidin-1-yl)propan-1-one, HCl] reads 1 to 99 nM.
Regarding `Cc1c(-c2ccc(OC3CCN(C(=O)C4(N)CC4)CC3)cc2)ccc2cccnc12` [Example 316, (1-Aminocyclopropyl)-{4-[4-(8-methyl-quinolin-7-yl)-phenoxy]-piperidin-1-yl}-methanone], the IC50 was 1 to 99 nM.
As to `O=C(C1CC(F)(F)C1)N1CCC(Oc2ccc(-c3cnc4ccccc4c3)cc2)CC1` [Example 119, (3,3-Difluorocyclobutyl)-[4-(4-quinolin-3-yl-phenoxy)-piperidin-1-yl]-methanone], the IC50 was 1000 to 10000 nM.
Take `O=C(C1CC1)N1CCC(Oc2ccc(-c3cnc4ccccc4c3)cn2)CC1` [Example 134, Cyclopropyl-[4-(5-quinolin-3-yl-pyridin-2-yloxy)-piperidin-1-yl]-methanone, HCl]: the IC50 lay in the range of 1000 to 10000 nM.
Still for that read-out and setting: the result for `O=C(N1CCC(Oc2ccc(-c3ccc4cccnc4c3Cl)cc2)CC1)N1CCCO1` [Example 77, {4-[4-(8-Chloroquinolin-7-yl)-phenoxy]-piperidin-1-yl}-isoxazolidin-2-yl-methanone] reads 1 to 99 nM; that for `CCC(=O)N1CCC(Oc2ccc(-c3ccc4nccn4c3C)cc2)CC1` [Example 286, 1-{4-[4-(5-Methylimidazo[1,2-a]pyridin-6-yl)-phenoxy]-piperidin-1-yl}-propan-1-one], 1000 to 10000 nM; that for `O=C(C1CC1)N1CCC(Oc2ccc(-c3ccnc(Nc4ccccc4)c3)cc2)CC1` [Example 405, Cyclopropyl-{4-[4-(2-phenylaminopyridin-4-yl)-phenoxy]-piperidin-1-yl}-methanone], 1000 to 10000 nM.
The same measure, in the same setting: as for `Nc1nccc2cc(-c3ccc(OC4CCN(C(=O)[C@H]5CCCO5)CC4)cc3)ccc12` [Example 454, {4-[4-(1-Aminoisoquinolin-6-yl)-phenoxy]-piperidin-1-yl}-(R)-tetrahydro-furan-2-yl-methanone], the figure is 1 to 99 nM.
Same read-out and setting: as for `CCC(=O)N1CCC(Oc2ccc(-c3ccc(-c4ccccc4)nc3)cc2)CC1` [Example 378, 1-{4-[4-(6-Phenyl-pyridin-3-yl)-phenoxy]-piperidin-1-yl}-propan-1-one], the figure is 1000 to 10000 nM; as for `COCC(=O)N1CCC(Oc2ccc(-c3cnc4ccccc4c3)cc2)CC1` [Example 105], 1 to 99 nM.
With `CCC(=O)N1CCC(Oc2ccc(-c3ccc4cccnc4c3C(N)=O)cc2)CC1` [Example 337, 7-[4-(1-Propionyl-piperidin-4-yloxy)-phenyl]-quinoline-8-carboxylic acid amide], the IC50 was in the range of 1000 to 10000 nM.
On to `O=C(C1CCC1)N1CCC(Oc2ccc(-c3ccc(-c4ccccc4)nc3)cc2)CC1` [Example 381, Cyclobutyl-{4-[4-(6-phenyl-pyridin-3-yl)-phenoxy]-piperidin-1-yl}-methanone], for which the IC50 lay in the range of 100 to 999 nM.
On the same count and under the same terms, as for `COc1cc2cc(-c3ccc(OC4CCN(C(=O)[C@H]5CCCO5)CC4)cc3)ccc2cn1` [Example 418, {4-[4-(3-Methoxy-isoquinolin-6-yl)-phenoxy]-piperidin-1-yl}-(R)-tetrahydrofuran-2-yl-methanone], the figure is 1 to 99 nM.
Still for that read-out and setting: the result for `N#Cc1cnc2cc(-c3ccc(OC4CCN(C(=O)[C@H]5CCCO5)CC4)cc3)ccc2c1` [Example 278, 7-{4-[1-((R)-Tetrahydrofuran-2-carbonyl)-piperidin-4-yloxy]-phenyl}-quinoline-3-carbonitrile] reads 1 to 99 nM; that for `CCC(=O)N1CCC(Oc2ccc(-c3ccc4cc(C#N)cnc4c3)cc2)CC1` [Example 277, 7-[4-(1-Propionyl-piperidin-4-yloxy)-phenyl]-quinoline-3-carbonitrile], 100 to 999 nM.
Take `O=C([C@H]1CCCO1)N1CCC(Oc2ccc(-c3ccc4cc(Cl)cnc4c3)cc2)CC1` [Example 265, {4-[4-(3-Chloroquinolin-7-yl)-phenoxy]-piperidin-1-yl}-(R)-tetrahydro-furan-2-yl-methanone, TFA salt]: the IC50 was in the range of 1 to 99 nM.
Same read-out and setting: as for `O=C([C@H]1CCCO1)N1CCC(Oc2ccc(-c3ccc4cccnc4c3OCCN3CCOCC3)cc2)CC1` [Example 182, (4-{4-[8-(2-Morpholin-4-yl-ethoxy)-quinolin-7-yl]-phenoxy}-piperidin-1-yl)-(R)-tetrahydrofuran-2-yl-methanone, 2HCl], the figure is 100 to 999 nM; as for `CCC(=O)N1CCC(Oc2ccc(-c3cnc4cc(OC)c(Cl)cc4c3)cc2)CC1` [Example 447, 1-{4-[4-(6-Chloro-7-methoxyquinolin-3-yl)-phenoxy]-piperidin-1-yl}-propan-1-one], 1000 to 10000 nM.
As to `O=C(C1CC1)N1CCC(Oc2ccc(-c3ccc4cnc(Cl)cc4c3)cc2)CC1` [Example 414, {4-[4-(3-Chloroisoquinolin-6-yl)-phenoxy]-piperidin-1-yl}-cyclopropyl-methanone], the IC50 was in the range of 1000 to 10000 nM.
With `CCC(=O)N1CCC(Oc2ccc(-c3ccc4cccnc4c3C)cc2)CC1C` (mixture of isomers) [Example 363, 1-{2-Methyl-4-[4-(8-methylquinolin-7-yl)-phenoxy]-piperidin-1-yl}-propan-1-one, HCl], the IC50 was in the range of 100 to 999 nM.
As to `CC(C)C(=O)N1CCC(Sc2ccc(-c3ccc4cnccc4c3)cc2)CC1` [Example 521, 1-(4-((4-(Isoquinolin-6-yl)phenyl)thio)piperidin-1-yl)-2-methylpropan-1-one HCl], the IC50 was in the range of 100 to 999 nM.
The same measure, in the same setting: the result for `CC(C)C(=O)N1CCC(Oc2ccc(-c3ccc4cccnc4c3)cc2Cl)CC1` [Example 195, 1-[4-(2-Chloro-4-quinolin-7-yl-phenoxy)-piperidin-1-yl]-2-methyl-propan-1-one] reads 1000 to 10000 nM; that for `CNc1nccc2cc(-c3ccc(OC4CCN(C(=O)[C@H]5CCCO5)CC4)cc3)ccc12` [Example 456, {4-[4-(1-Methylaminoisoquinolin-6-yl)-phenoxy]-piperidin-1-yl}-(R)-tetrahydrofuran-2-yl-methanone], 1 to 99 nM; that for `CCC(=O)N1CCC(Oc2ccc(-c3ccc4cc(Cl)cnc4c3)cc2)CC1` [Example 266, 1-{4-[4-(3-Chloroquinolin-7-yl)-phenoxy]-piperidin-1-yl}-propan-1-one, TFA salt], 100 to 999 nM.
Turning to `O=C(C1CC1)N1CCC(Oc2ccc(-c3cnc4ccccc4c3)nc2)CC1` [Example 142, Cyclopropyl-[4-(6-quinolin-3-yl-pyridin-3-yloxy)-piperidin-1-yl]-methanone, 2HCl], the IC50 was in the range of 1000 to 10000 nM.
Turning to `O=C(C1CC1)N1CCC(Oc2ccc(-c3cnc4ccccc4c3)c(F)c2)CC1` [Example 202, Cyclopropyl-[4-(3-fluoro-4-quinolin-3-yl-phenoxy)-piperidin-1-yl]-methanone], the IC50 fell in the range of 1 to 99 nM.
Take `CCC(=O)N1CCC(Oc2ccc(-c3ccc4cnc(C)cc4c3)cc2)CC1` [Example 430, 1-{4-[4-(3-Methylisoquinolin-6-yl)-phenoxy]-piperidin-1-yl}-propan-1-one]: the IC50 was in the range of 1000 to 10000 nM.
Still for that read-out and setting: as for `CCC(=O)N1CCC(Oc2ccc(-c3cnc4ccccc4c3)cc2OC)CC1` [Example 196, 1-[4-(2-Methoxy-4-quinolin-3-yl-phenoxy)-piperidin-1-yl]-propan-1-one], the figure is 1000 to 10000 nM.
